Source: PubChem BioAssay AID208 (DTP/NCI, 2004)
Values joined by “and” are separate entries in the source; they are usually repeats but may differ in a detail not shown here. Identical values can stand only once. Records with an inconclusive call do not appear.

System: HT29 intrarenal xenograft, nude mice, tumor weight change
Experiment: NCI In Vivo Anticancer Drug Screen. Data for tumor model HT29;CX-1 Human Adenocarcinoma (MER+) (intrarenal inoculation) in NU/NU BALB/C (nude) mice
Conditions: endpoint: mean tumor weight change, higher = larger tumour
Experimental: The antitumor activity of compounds was measured in mice bearing transplantable tumors. Survival or tumor size were measured and the results are expressed as the measurement made in the treated group (T) divided by the measurement made in the vehicle treated control group (C). The tumor model used in this assay is HT29;CX-1 Human Adenocarcinoma (MER+) (intrarenal inoculation) in NU/NU BALB/C (nude) mice

[1] = dose: 300.0 mg/kg/injection, schedule: Q04DX004 (sc), vehicle: saline
[2] = dose: 600.0 mg/kg/injection, schedule: Q04DX004 (sc), vehicle: saline
[3] = dose: 150.0 mg/kg/injection, schedule: Q04DX004 (sc), vehicle: saline
[4] = dose: 150.0 mg/kg/injection, schedule: Q04DX004 (sc), vehicle: saline with Tween-80
[5] = dose: 300.0 mg/kg/injection, schedule: Q04DX004 (sc), vehicle: saline with Tween-80
[6] = dose: 600.0 mg/kg/injection, schedule: Q04DX004 (sc), vehicle: saline with Tween-80
[7] = dose: 1200.0 mg/kg/injection, schedule: Q04DX004 (sc), vehicle: saline with Tween-80
[8] = dose: 100.0 mg/kg/injection, schedule: Q01DX010 (sc), vehicle: saline with Tween-80
[9] = dose: 150.0 mg/kg/injection, schedule: Q04DX004 (ip), vehicle: Klucel (hydroxypropylcellulose) (HPC)
[10] = dose: 300.0 mg/kg/injection, schedule: Q04DX004 (ip), vehicle: Klucel (hydroxypropylcellulose) (HPC)
[11] = dose: 600.0 mg/kg/injection, schedule: Q04DX004 (ip), vehicle: Klucel (hydroxypropylcellulose) (HPC)
[12] = dose: 200.0 mg/kg/injection, schedule: Q01DX010 (sc), vehicle: saline with Tween-80
[13] = dose: 300.0 mg/kg/injection, schedule: Q04DX004 (ip), vehicle: saline
[14] = dose: 600.0 mg/kg/injection, schedule: Q04DX004 (ip), vehicle: saline
[15] = dose: 75.0 mg/kg/injection, schedule: Q04DX004 (ip), vehicle: saline
[16] = dose: 150.0 mg/kg/injection, schedule: Q04DX004 (ip), vehicle: saline

For `O=[N+]([O-])O.O=[N+]([O-])O.[NH-]C1CCCCC1[NH-].[Pt+2]` (stereo unspecified), the T/C (dose: 0.5 mg/kg/injection, schedule: Q01DX010 (sc), vehicle: dextrose) was 87 % of control, the T/C (dose: 1.0 mg/kg/injection, schedule: Q01DX010 (sc), vehicle: dextrose) was 62 % of control and the T/C (dose: 2.0 mg/kg/injection, schedule: Q01DX010 (sc), vehicle: dextrose) was 36 % of control.

In the case of `N#CC(OC1OC(COC2OC(CO)C(O)C(O)C2O)C(O)C(O)C1O)c1ccccc1` (stereo unspecified), the T/C [1] is reported as 95 % of control, the T/C [2] is reported as 96 % of control and the T/C (dose: 1200.0 mg/kg/injection, schedule: Q04DX004 (sc), vehicle: saline) is reported as 88 % of control. The T/C (dose: 2400.0 mg/kg/injection, schedule: Q04DX004 (sc), vehicle: saline) was 94 % of control.

With `OCC1OC(n2cnc3c(=S)nc[nH]c32)C(O)C1O` (stereo unspecified) the T/C [3] was 91 % of control, the T/C [1] was 173 % of control and the T/C [2] was 103 % of control.

With `CC(C)CCC(=O)c1ccoc1` the T/C (dose: 0.75 mg/kg/injection, schedule: Q01DX010 (ip), vehicle: saline with Tween-80) was 85 % of control, the T/C (dose: 1.5 mg/kg/injection, schedule: Q01DX010 (ip), vehicle: saline with Tween-80) was 87 % of control and the T/C (dose: 3.0 mg/kg/injection, schedule: Q01DX010 (ip), vehicle: saline with Tween-80) was 75 % of control and 91 % of control. For the same molecule, the T/C (dose: 6.0 mg/kg/injection, schedule: Q01DX010 (ip), vehicle: saline with Tween-80) was 74 % of control and 94 % of control.

With `Oc1cccc2ccccc12` the T/C (dose: 150.0 mg/kg/injection, schedule: Q04DX004 (ip), vehicle: water) was 63 % of control.

For `O=C(CCCCCCC(=O)ON1C(=O)CCC1=O)ON1C(=O)CCC1=O`, the T/C [4] was 25 % of control, the T/C [5] was 50 % of control and the T/C [6] was 93 % of control. The T/C [7] was 77 % of control.

In the case of `CN(C)c1nc(N(C)C)nc(N(C)C)n1`, the T/C (dose: 12.5 mg/kg/injection, schedule: Q01DX010 (sc), vehicle: saline with Tween-80) is reported as 99 % of control, the T/C (dose: 50.0 mg/kg/injection, schedule: Q01DX010 (sc), vehicle: saline with Tween-80) is reported as 79 % of control and the T/C [8] is reported as 72 % of control.

`N=C(N)c1ccc(/C=C/c2ccc(C(=N)N)cc2O)cc1` was tested, and the T/C (dose: 75.0 mg/kg/injection, schedule: Q04DX004 (sc), vehicle: water) was 101 % of control and the T/C (dose: 150.0 mg/kg/injection, schedule: Q04DX004 (sc), vehicle: water) was 86 % of control.

With `O=C(O)C1(NO)CCCCC1` the T/C (dose: 200.0 mg/kg/injection, schedule: Q04DX004 (sc), vehicle: Klucel (hydroxypropylcellulose) (HPC)) was 168 % of control, the T/C (dose: 400.0 mg/kg/injection, schedule: Q04DX004 (sc), vehicle: Klucel (hydroxypropylcellulose) (HPC)) was 122 % of control and the T/C (dose: 1600.0 mg/kg/injection, schedule: Q04DX004 (sc), vehicle: Klucel (hydroxypropylcellulose) (HPC)) was 92 % of control.

With `C[C@]12CCC(=O)C(O)=C1CC[C@@H]1[C@@H]2CC[C@]2(C)C(=O)CC[C@@H]12` the T/C [9] was 84 % of control, the T/C [10] was 94 % of control and the T/C [11] was 67 % of control. For the same molecule, the T/C (dose: 1200.0 mg/kg/injection, schedule: Q04DX004 (ip), vehicle: Klucel (hydroxypropylcellulose) (HPC)) was 84 % of control.

In the case of `Cn1ccc(=Nc2ccc(NC(=O)c3ccc(N=c4ccn(C)c5ccc([N+](=O)[O-])cc45)cc3[N+](=O)[O-])cc2)cc1`, the T/C [5] is reported as 102 % of control, the T/C [6] is reported as 104 % of control and the T/C [7] is reported as 164 % of control. The T/C (dose: 2400.0 mg/kg/injection, schedule: Q04DX004 (sc), vehicle: saline with Tween-80) was 156 % of control.

With `CO[C@H]1C[C@@H]2CC[C@@H](C)[C@@](O)(O2)C(=O)C(=O)N2CCCC[C@H]2C(=O)O[C@H]([C@H](C)C[C@@H]2CC[C@@H](O)[C@H](OC)C2)CC(=O)[C@H](C)C=C(C)[C@@H](O)[C@@H](OC)C(=O)[C@H](C)C[C@H](C)/C=C/C=C/C=C1C` the T/C [12] was 84 % of control, the T/C (dose: 400.0 mg/kg/injection, schedule: Q01DX010 (sc), vehicle: saline with Tween-80) was 40 % of control and the T/C (dose: 800.0 mg/kg/injection, schedule: Q01DX010 (sc), vehicle: saline with Tween-80) was 59 % of control. For the same molecule, the T/C (dose: 1600.0 mg/kg/injection, schedule: Q01DX010 (sc), vehicle: saline with Tween-80) was 25 % of control.

In the case of `[Cl][Hg][Cl]`, the T/C (dose: 2.5 mg/kg/injection, schedule: Q04DX004 (ip), vehicle: saline) is reported as 155 % of control and the T/C (dose: 5.0 mg/kg/injection, schedule: Q04DX004 (ip), vehicle: saline) is reported as 68 % of control.

In the case of `CC1(C)CC2(C)OC2C2(C1)N=NC(=Nc1ccccc1)O2` (stereo unspecified), the T/C (dose: 75.0 mg/kg/injection, schedule: Q04DX004 (sc), vehicle: saline with Tween-80) is reported as 16 % of control, the T/C [4] is reported as 124 % of control and the T/C [5] is reported as 89 % of control. The T/C [6] was 69 % of control.

For `CC[As](=O)(O)CC`, the T/C (dose: 100.0 mg/kg/injection, schedule: Q04DX004 (sc), vehicle: saline) was 61 % of control.

With `CCOC(=O)C(CC(C)C)NC(=O)C(Cc1ccc(N(CCCl)CCCl)cc1)NC(C)=O` (stereo unspecified) the T/C [8] was 46 % of control and the T/C [12] was 2 % of control.

With `O=C(O)[C@H](Cc1ccccc1)N1C(=O)c2ccccc2C1=O` the T/C (dose: 150.0 mg/kg/injection, schedule: Q04DX004 (ip), vehicle: DMSO) was 180 % of control and the T/C (dose: 300.0 mg/kg/injection, schedule: Q04DX004 (ip), vehicle: DMSO) was 97 % of control.

`COc1cc(Cc2nccc3cc(OC)c(OC)cc23)c(C(C)=O)cc1OC` was tested, and the T/C (dose: 75.0 mg/kg/injection, schedule: Q04DX004 (sc), vehicle: saline) was 86 % of control, the T/C [3] was 84 % of control and the T/C [1] was 55 % of control. The T/C [2] was 33 % of control.

With `CO[C@H]1C[C@](C)(O)Cc2cc3c(c(O)c21)C(=O)c1c(O)cc2c(c1C3=O)O[C@@H]1O[C@@]2(C)[C@H](O)[C@@H](N(C)C)[C@@H]1O` the T/C (dose: 6.25 mg/kg/injection, schedule: Q01DX010 (sc), vehicle: other) was 65 % of control and the T/C (dose: 12.5 mg/kg/injection, schedule: Q01DX010 (sc), vehicle: other) was 76 % of control.

In the case of `Nc1nc(=O)n(C2OC(CO)C(O)C2O)cc1F` (stereo unspecified), the T/C [13] is reported as 66 % of control, the T/C [14] is reported as 64 % of control and the T/C (dose: 900.0 mg/kg/injection, schedule: Q04DX004 (ip), vehicle: saline) is reported as 53 % of control. For the same molecule, the T/C (dose: 1200.0 mg/kg/injection, schedule: Q04DX004 (ip), vehicle: saline) was 88 % of control.

For `O=CC(O)C(O)C(O)C(O)CO` (stereo unspecified), the T/C [15] was 195 % of control, the T/C [16] was 164 % of control and the T/C [14] was 164 % of control.

In the case of `OCC(O)C(O)C(O)C(O)CO` (stereo unspecified), the T/C [15] is reported as 104 % of control, the T/C [16] is reported as 115 % of control and the T/C [13] is reported as 82 % of control. The T/C [14] was 90 % of control.

`C/C(=N\NC(=S)N1CCN(c2ccccn2)CC1)c1ccccn1` was tested, and the T/C (dose: 50.0 mg/kg/injection, schedule: Q04DX004 (sc), vehicle: water) was 158 % of control.

`CCC1=C[C@H]2CN(CCc3c([nH]c4ccccc34)[C@@](C(=O)OC)(c3cc4c(cc3OC)N(C)[C@H]3[C@@](O)(C(=O)NC)[C@H](OC(C)=O)[C@]5(CC)C=CCN6CC[C@]43[C@@H]65)C2)C1` was tested, and the T/C (dose: 2.0 mg/kg/injection, schedule: Q04DX004 (sc), vehicle: water) was -17 % of control and 8 % of control and the T/C (dose: 4.0 mg/kg/injection, schedule: Q04DX004 (sc), vehicle: water) was -99 % of control.

For `CCCCc1ccc2nc(NC(=O)OC)[nH]c2c1`, the T/C (dose: 25.0 mg/kg/injection, schedule: Q01DX010 (sc), vehicle: saline with Tween-80) was 108 % of control, the T/C [8] was 90 % of control and the T/C [12] was 94 % of control.

With `Nc1nc2ccc(NCc3ccc(C(=O)NC(CCC(=O)O)C(=O)O)cc3)cc2c(=O)[nH]1` (stereo unspecified) the T/C (dose: 200.0 mg/kg/injection, schedule: Q04DX004 (sc), vehicle: saline with Tween-80) was 92 % of control and the T/C (dose: 400.0 mg/kg/injection, schedule: Q04DX004 (sc), vehicle: saline with Tween-80) was 105 % of control.

`COc1ccc2c(ccc3oc([N+](=O)[O-])cc32)c1` was tested, and the T/C (dose: 150.0 mg/kg/injection, schedule: Q04DX004 (sc), vehicle: Klucel (hydroxypropylcellulose) (HPC)) was 113 % of control and the T/C (dose: 600.0 mg/kg/injection, schedule: Q04DX004 (sc), vehicle: Klucel (hydroxypropylcellulose) (HPC)) was 76 % of control.

With `O=C1C2CC(Cl)C(SSC3CC4C(=O)N(SC(Cl)(Cl)C(Cl)Cl)C(=O)C4CC3Cl)CC2C(=O)N1SC(Cl)(Cl)C(Cl)Cl` (stereo unspecified) the T/C (dose: 75.0 mg/kg/injection, schedule: Q04DX004 (ip), vehicle: Klucel (hydroxypropylcellulose) (HPC)) was 56 % of control, the T/C [9] was 58 % of control and the T/C [10] was 39 % of control. For the same molecule, the T/C [11] was 35 % of control.
